According to ChEMBL document CHEMBL1201862, “PubChem BioAssay data set” (2004):
The source made the active and inactive calls.

Assays:
[1] = optical artefact potency, substrate without enzyme – biochemical, fluorescence intensity, triplicate, artefact control for kallikrein-7 zymogen activator project, dose response (AID 720493)
[2] = molecular target: Kallikrein-7 (Homo sapiens, UniProt P49862); experiment: Fluorescence Intensity-based biochemical primary high throughput dose response assay to identify activators of kallikrein-7 (K7) zymogen.
Kallikrein-7, sequence (P49862 whole entry, the tested form may be a part): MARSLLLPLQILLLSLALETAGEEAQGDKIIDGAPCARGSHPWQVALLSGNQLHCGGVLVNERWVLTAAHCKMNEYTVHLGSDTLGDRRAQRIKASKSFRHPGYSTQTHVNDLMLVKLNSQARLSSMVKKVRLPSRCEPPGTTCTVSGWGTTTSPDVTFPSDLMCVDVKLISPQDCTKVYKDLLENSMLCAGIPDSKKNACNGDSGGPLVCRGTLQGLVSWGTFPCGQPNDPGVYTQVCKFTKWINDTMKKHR

[3] = molecular target: Arf-GAP with SH3 domain, ANK repeat and PH domain-containing protein 1 (Homo sapiens, UniProt Q9ULH1); type: functional;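 also: biochemical fluorescence polarization dose–response screen measuring inhibition of ASAP1; ASAP1 GAP domain stimulating GTP hydrolysis by truncated human ARF1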
Arf-GAP with SH3 domain, ANK repeat and PH domain-containing protein 1, sequence (Q9ULH1 whole entry, the tested form may be a part): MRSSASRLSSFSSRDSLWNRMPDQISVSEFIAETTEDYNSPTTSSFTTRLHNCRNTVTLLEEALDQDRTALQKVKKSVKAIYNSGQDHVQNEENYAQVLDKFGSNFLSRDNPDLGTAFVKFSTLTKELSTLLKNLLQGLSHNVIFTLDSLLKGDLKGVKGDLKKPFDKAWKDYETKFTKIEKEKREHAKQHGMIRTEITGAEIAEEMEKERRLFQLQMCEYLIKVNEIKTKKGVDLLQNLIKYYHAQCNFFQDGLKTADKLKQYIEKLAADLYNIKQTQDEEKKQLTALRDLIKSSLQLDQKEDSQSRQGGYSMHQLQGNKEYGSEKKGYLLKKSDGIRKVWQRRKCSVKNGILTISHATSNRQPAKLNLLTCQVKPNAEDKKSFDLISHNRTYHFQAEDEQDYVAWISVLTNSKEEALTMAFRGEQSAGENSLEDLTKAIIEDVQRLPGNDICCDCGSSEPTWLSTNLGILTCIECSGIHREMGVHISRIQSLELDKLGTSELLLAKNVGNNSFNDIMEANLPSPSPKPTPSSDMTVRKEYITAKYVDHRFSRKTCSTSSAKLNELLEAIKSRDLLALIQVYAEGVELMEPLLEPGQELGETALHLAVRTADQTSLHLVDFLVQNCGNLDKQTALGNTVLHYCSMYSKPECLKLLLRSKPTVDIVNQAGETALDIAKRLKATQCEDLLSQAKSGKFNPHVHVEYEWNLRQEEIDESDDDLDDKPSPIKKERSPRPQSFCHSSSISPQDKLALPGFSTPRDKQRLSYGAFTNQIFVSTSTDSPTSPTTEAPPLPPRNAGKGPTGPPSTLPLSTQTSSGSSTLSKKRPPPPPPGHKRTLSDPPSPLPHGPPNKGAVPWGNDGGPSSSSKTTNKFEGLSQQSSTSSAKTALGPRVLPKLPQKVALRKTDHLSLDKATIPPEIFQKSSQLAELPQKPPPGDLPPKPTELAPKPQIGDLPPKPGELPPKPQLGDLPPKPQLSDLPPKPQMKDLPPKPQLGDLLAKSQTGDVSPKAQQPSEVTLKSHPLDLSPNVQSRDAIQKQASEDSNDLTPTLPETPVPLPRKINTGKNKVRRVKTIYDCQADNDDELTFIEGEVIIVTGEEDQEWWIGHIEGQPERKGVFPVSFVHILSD

[4] = molecular target: ADP-ribosylation factor GTPase-activating protein 1 (Rattus norvegicus, UniProt Q62848); experiment: Fluorescence polarization-based biochemical high throughput dose response screening assay to identify inhibitors of ADP-ribosylation factor GTPase activating protein 1 (ARFGAP1).; type: functional
ADP-ribosylation factor GTPase-activating protein 1, sequence (Q62848 whole entry): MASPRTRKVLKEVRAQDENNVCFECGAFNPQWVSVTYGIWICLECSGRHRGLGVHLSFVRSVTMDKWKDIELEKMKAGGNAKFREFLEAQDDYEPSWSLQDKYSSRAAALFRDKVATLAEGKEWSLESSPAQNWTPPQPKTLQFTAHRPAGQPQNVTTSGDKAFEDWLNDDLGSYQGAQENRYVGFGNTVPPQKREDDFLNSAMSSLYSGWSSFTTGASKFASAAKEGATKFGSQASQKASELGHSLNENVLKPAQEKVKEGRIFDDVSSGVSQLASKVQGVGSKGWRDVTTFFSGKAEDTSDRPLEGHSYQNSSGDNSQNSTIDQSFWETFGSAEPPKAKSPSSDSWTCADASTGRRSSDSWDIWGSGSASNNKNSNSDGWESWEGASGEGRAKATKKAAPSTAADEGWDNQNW

[5] = molecular target: T1, Beta-2 adrenergic receptor (Homo sapiens, UniProt P07550); experiment: ADRB2 activation measured by internalization – cell-based, FAP fluorogen, flow cytometry, cherry pick 1, dose response (AID 588763); type: functional
T1 sequence (P07550 whole entry): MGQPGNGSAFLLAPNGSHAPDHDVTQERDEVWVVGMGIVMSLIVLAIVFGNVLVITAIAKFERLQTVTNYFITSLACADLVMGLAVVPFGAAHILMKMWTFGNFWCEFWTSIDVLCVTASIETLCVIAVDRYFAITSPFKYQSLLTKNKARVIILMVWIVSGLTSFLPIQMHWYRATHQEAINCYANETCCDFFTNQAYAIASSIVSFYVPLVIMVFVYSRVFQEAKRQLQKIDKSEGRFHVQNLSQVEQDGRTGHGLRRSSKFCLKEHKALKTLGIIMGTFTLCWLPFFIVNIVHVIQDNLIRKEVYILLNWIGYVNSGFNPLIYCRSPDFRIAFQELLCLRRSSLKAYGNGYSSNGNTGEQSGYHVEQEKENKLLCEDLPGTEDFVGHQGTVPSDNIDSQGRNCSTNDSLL

[6] = molecular target: Fructose-bisphosphate aldolase (Mycobacterium tuberculosis, UniProt P9WQA3); experiment: Fluorescence-based biochemical high throughput dose response assay for inhibitors of the fructose-bisphosphate aldolase (FBA) of M. tuberculosis.; type: functional
Fructose-bisphosphate aldolase, sequence (P9WQA3 whole entry): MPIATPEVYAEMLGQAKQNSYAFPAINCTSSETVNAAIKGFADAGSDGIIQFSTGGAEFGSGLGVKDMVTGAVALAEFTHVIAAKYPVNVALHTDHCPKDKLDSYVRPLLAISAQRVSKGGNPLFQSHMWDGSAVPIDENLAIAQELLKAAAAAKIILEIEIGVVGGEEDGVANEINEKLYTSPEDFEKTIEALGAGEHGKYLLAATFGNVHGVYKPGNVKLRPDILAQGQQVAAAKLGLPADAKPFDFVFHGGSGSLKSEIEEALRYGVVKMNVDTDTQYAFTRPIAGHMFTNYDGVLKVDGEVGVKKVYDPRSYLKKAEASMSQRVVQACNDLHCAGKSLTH

[7] = molecular target: T1, Beta-2 adrenergic receptor; experiment: Dose response for HTS for Beta-2AR agonists via FAP method from Powderset3.; type: functional
[8] = A Cell-Based Confirmatory Screen for Compounds that Inhibit VEEV, TC-83 (8).; type: functional
[9] = A Cell-Based Confirmatory Screen for Compounds that Inhibit VEEV, TC-83 (7).; type: functional
[10] = viability loss in HEK293T cells – cell-based, cherry-picks, cytotoxicity control for HIV Vif inhibitor project, dose response (AID 652208); type: functional
[11] = molecular target: T2, Corticotropin-releasing factor receptor 2/Corticotropin-releasing factor-binding protein (Homo sapiens, UniProt P24387+Q13324); experiment: activators of CRF receptor 2 with binding protein – uHTS hits, confirmation (AID 602473); type: functional; conditions: read-out: EC50_Mean
T2 sequence (Q13324 whole entry): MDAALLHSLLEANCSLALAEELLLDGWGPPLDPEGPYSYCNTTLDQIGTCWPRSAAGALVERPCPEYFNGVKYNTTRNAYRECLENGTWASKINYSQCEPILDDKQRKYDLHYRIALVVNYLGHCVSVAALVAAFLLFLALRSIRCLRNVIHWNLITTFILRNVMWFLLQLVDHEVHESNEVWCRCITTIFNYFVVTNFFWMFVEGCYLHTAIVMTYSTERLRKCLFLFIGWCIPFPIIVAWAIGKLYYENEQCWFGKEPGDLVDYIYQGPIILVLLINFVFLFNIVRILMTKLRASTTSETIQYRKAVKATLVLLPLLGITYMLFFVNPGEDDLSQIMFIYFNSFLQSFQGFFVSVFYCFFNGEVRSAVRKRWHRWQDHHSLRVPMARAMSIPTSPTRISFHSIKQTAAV
T2 sequence (P24387 whole entry): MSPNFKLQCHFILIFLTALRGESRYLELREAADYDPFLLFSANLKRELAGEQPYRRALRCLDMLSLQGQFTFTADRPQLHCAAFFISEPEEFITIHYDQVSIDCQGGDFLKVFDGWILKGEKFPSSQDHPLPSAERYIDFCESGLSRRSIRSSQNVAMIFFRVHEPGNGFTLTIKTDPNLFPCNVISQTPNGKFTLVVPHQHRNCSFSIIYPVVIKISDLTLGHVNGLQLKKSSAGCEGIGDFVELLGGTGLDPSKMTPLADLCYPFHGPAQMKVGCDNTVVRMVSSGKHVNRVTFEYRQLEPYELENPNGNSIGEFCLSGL

[12] = molecular target: Protein Wnt-3a (Mus musculus, UniProt P27467); experiment: SAR analysis of small molecule antagonists of Gli-SUFU in a Wnt3a luminescent reporter assay.; type: functional
Protein Wnt-3a, sequence (P27467 whole entry): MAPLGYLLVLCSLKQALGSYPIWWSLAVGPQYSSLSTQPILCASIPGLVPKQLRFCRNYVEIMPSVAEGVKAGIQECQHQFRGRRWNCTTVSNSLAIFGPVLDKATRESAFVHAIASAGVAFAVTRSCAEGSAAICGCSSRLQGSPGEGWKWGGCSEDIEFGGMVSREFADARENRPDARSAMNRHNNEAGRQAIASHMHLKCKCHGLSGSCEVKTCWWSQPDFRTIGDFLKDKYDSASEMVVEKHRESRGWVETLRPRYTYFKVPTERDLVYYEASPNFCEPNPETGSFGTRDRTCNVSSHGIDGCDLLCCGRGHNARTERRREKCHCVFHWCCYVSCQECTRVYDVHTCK

[13] = inhibitors of TRPM1-promoter reporter in SK-MEL-5 – cell-based, luciferase, dry powder, set 8, MITF inhibitor project, dose response (AID 624430); type: functional
[14] = MITF Orthogonal Assay: SK-MEL-5 CTG Assay Measured in Cell-Based System Using Plate Reader - 2084-02_Inhibitor_Dose_DryPowder_Activity_Set7.; type: functional
[15] = MITF: Counter assay: A375 proliferation Measured in Cell-Based System Using Plate Reader - 2084-03_Inhibitor_Dose_DryPowder_Activity_Set8.; type: functional; conditions: A-375
[16] = viability loss in A549 lung cancer cells – cell-based, CellTiter-Glo luminescence, dry powder, set 3, cytotoxicity control, dose response (AID 743146); type: functional
[17] = HIV-1 AD8 envelope cell-cell fusion blockers – cherry-pick, dose response (AID 652062); type: functional, cell-based;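 also: luciferase signal from cell-cell fusion driven by HIV-1 clade B AD8 Env; potency is for inhibitors of fusion seen as a drop in luminescence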
[18] = off-target signal loss in HeLa-CEM21 co-culture – HeLa F-luc CTL cells, cherry-picked, counter-screen for HIV-1 Env fusion inhibitor project, dose response (AID 652040); type: functional, cell-based;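 also: potency for signal decrease marking cytotoxic or nonspecific inhibition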
[19] = blockers of HIV-1 envelope-mediated cell-cell fusion – cherry-pick, dose response (AID 652057); type: functional, cell-based
[20] = blockers of HIV-1 ZM109 envelope-driven cell-cell fusion – HeLa effector, CEM target cells, luciferase, cherry-pick, dose response (AID 652058); type: functional, cell-based;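 also: luciferase signal from HIV-1 Env mediated cell-cell fusion of effector and target cells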
[21] = viability loss in CEM21 cells – cell-based, plate reader, dry powder, cytotoxicity control, dose response (AID 687026); type: functional
[22] = viability loss in CEM21 cells – cell-based, CellTiter-Glo luminescence, cherry-picked, cytotoxicity control for viral fusion inhibitor project, dose response (AID 652042); type: functional;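 also: potency for signal decrease meaning cytotoxicity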

With `COc1cc2c(cc1OC)C(=O)CC(C)S2` (configuration not stated) the EC50 [1] was > 7.73 µM (active) and the EC50 [2] was 8.28 µM (active).

With `COc1ccccc1C=NNC(=O)NN=Cc1ccccc1OC` the IC50 [3] was 23.2 µM (inactive) and the IC50 [4] was 25.6 µM (inactive).

For `O=C(c1cc2c(=O)n3ccccc3nc2s1)N1CCN(Cc2ccc3c(c2)OCO3)CC1`, the EC50 [5] was 69.3 nM (active), the IC50 [6] was > 1.11 µM (active) and the EC50 [7] was 9.77 nM (active).

For `CN1CCN(C)/C(=N/c2ccc([N+](=O)[O-])cc2C(=O)Nc2ccccc2)C1`, the IC50 [8] was < 73 nM (active) and the IC50 [9] was < 40 nM (active).

In the case of `O=C(NCc1ccccc1C(F)(F)F)c1cccc2c1C(=O)c1ccc(N3CCCCC3)cc1S2(=O)=O`, the AC50 [10] was > 52 µM (inactive) and the EC50 [11] was 5.37 µM (active).

With `O=C(Nc1cc(N2CCCCC2)ncn1)c1ccccc1C(F)(F)F` the IC50 [12] was 6.48 µM (active).

For `CC(C)N1CCN(C2=C(Nc3cccc(Cl)c3)C(=O)c3ccccc3C2=O)CC1`, the AC50 [13] was 2.47 µM (active), the AC50 [14] was 7.16 µM (active) and the AC50 [15] was 30.1 µM (active).

With `O=C(CCNC(=O)c1ccc(Cl)cc1)N[C@H]1CCCc2ccccc21` the AC50 [16] was > 52 µM (inactive).

For `CCCn1nc(C(=O)Nc2ccc3nc(N4CCOCC4)sc3c2)ccc1=O`, the AC50 [17] was 10.3 µM (active), the AC50 [18] was > 70 µM (inactive) and the AC50 [19] was 1.85 µM (active). The AC50 [20] was 1.04 µM (active), the AC50 [21] was > 70 µM (inactive) and the AC50 [22] was 67.1 µM (active).
